Data taken from US3954893A, “New halogenated cyclobutanes” (W. R. Grace & Co., priority 1975, dated 1976).

Experiments:
[1] = Standard test for evaluation of inhalation anesthetics (rotating drum, 10 minutes exposure; AC50, LC50, AI); assay type: in vivo, mice; settings: mouse, in vivo, inhaled or intranasal, calculated from AC50 and LC50, mice; read-out: AI (anesthetic index)
Procedure: (§1) In this test, mice were exposed to the compounds for a period of 10 minutes in a rotating drum. Observations were then made of the pinch reflex, the corneal reflex and the return of the righting reflex. At least four graded doses were employed to determine the minimum concentration required to anesthetize 50% of the mice used (AC50) and the minimum concentration required to kill 50% of the mice (LC50). The anesthetic index (AI) was then calculated from these minimum concentrations. The data obtained with the compounds of Examples I to XIII are presented in Table 2 along with, for comparison purposes, results obtained from similar testing of 1,2-dihydrohexafluorocyclobutane, the compound of the prior art, a closely related analog, 1,1,2,2-tetrafluorocyclobutane, and another chlorofluoro anesthetic, 1,1,2-trichloro-2,3,3-trifluorocyclobutane.

mice [2] = assay: as above; assay type: in vivo; settings: for AC50 (minimum concentration required to anesthetize 50% of the mice) / LC50 (minimum concentration required to kill 50% of the mice): inhalation, 10 minutes exposure in rotating drum, where two percentages are given the actual vapor concentration lies between them
Procedure: as §1

air-breathing mammals = assay: Inhalation anesthetic properties of the compounds; assay type: in vivo; settings: for Convulsions and death: administered in concentrations within the useful range; for Inhalation anesthetic properties: in vivo
Procedure: as §1

[3] = cis- and trans- isomers, values reported by Burns et al; cited from earlier work
[4] = review of the art; cited from earlier work
mice [5] = assay: Observation after exposure: survival, delayed death, convulsions; assay type: in vivo
Procedure: as §1
In contrast to these findings, all test mice used in Example I to X were still living one week after exposure.
This compound, which is one of the numerous halogenated cyclobutanes that have been found deleterious, is of particular interest in that its close structural relationship to the 1,2-dihydrohexafluorocyclobutane isomers of the art and to the useful trifluoro (Ex. VII) homolog disclosed above provides a good illustration of the unpredictability in physiological behavior in the field of anesthesia.

| Structure (SMILES) | selectivity ratio at 10 min [1] | AC50 (minimum concentration required to anesthetize 50% of the mice) (mice [2]) | LC50 (minimum concentration required to kill 50% of the mice) (mice [2]) | Convulsions and death (air-breathing mammals) | Inhalation anesthetic properties (air-breathing mammals) | further results |
| --- | --- | --- | --- | --- | --- | --- |
| FC1CC(F)(F)C1Cl (centres unmarked) [VI, 1-chloro-2,4,4-trifluorocyclobutane] | ≥ 2 | < 1 % volume | 2 % volume | not cause convulsions and death | found to possess inhalation anesthetic properties | – |
| FC1C(F)C(F)(F)C1(F)F (centres unmarked) [XI, b.p. 63°] | – | – | – | – | – | AC50 (anesthetic concentration) [3]: 1.9 % volume |
| C1CC1 [cyclopropane] | – | – | – | – | – | Anesthetic properties / toxicity in the prior art [4]: effective if inflammable anesthetic |
| CC1CC(F)(F)C1(F)Br (centres unmarked) [IX, 1-bromo-2-methyl-1,4,4-trifluorocyclobutane] | ≥ 1.5 | 0.5-1 % volume | 1.5-1.75 % volume | not cause convulsions and death | found to possess inhalation anesthetic properties | – |
| FC1(F)CC(Cl)C1(F)Br (centres unmarked) [Example X, 1-bromo-2-chloro-1,4,4-trifluorocyclobutane] | ≥ 2.5 | < 0.2 % volume | 0.5 % volume | not cause convulsions and death | found to possess inhalation anesthetic properties | – |
| FC1(F)CCC1(F)F [Example XII, 1,1,2,2-tetrafluorocyclobutane, reference compound] | 3 | 4 % volume | 12 % volume | – | – | Convulsions (mice [5]; on further observation): proved to be a convulsant on further observation |
| FC1(F)CC(Cl)C1(F)Cl (centres unmarked) [I, b.p. 104°C] | – | 0.2 % volume | 0.8 % volume | – | – | AI (anesthetic index) (mice [2]; calculated from AC50 and LC50, mice, 10 min): 4 |
| FC1(F)C(F)(F)C(F)(Cl)C1(F)Cl (centres unmarked) [1,2-dichlorohexafluoro-] | – | – | – | – | – | Anesthetic properties / toxicity in the prior art [4]: toxic |
| FC1(F)CCC1(F)Br (centres unmarked) [VIII, 1-bromo-1,2,2-trifluorocyclobutane] | ≥ 7 | < 0.5 % volume | 3.5 % volume | not cause convulsions and death | found to possess inhalation anesthetic properties | – |
| FC(F)(F)C(Cl)Br (centres unmarked) [halothane, reference compound] | ~3 | – | – | – | – | – |
| FC1(F)C(F)(F)C(F)(F)C1(F)F [octafluoro-] | – | – | – | – | – | Anesthetic properties / toxicity in the prior art [4]: inactive |
| FC1C(F)C(F)(F)C1(F)F (centres unmarked) [1,2-dihydrohexafluoro-, 1,2-dihydrohexafluorocyclobutane] | – | – | – | – | – | Anesthetic properties / toxicity in the prior art [4]: said to possess anesthetic properties |
| FC1(F)CC(Cl)C1(F)Cl (centres unmarked) [1,4-dichloro-1,2,2-trifluorocyclobutane] | – | – | – | not cause convulsions and death | found to possess inhalation anesthetic properties | – |
| FC1(F)CC(Cl)(Cl)C1(F)Cl (centres unmarked) [XIII, 1,1,2-trichloro-2,3,3-trifluorocyclobutane, reference compound] | 5 | 0.2 % volume | 1 % volume | – | – | Delayed death (mice [5]; mice, retested in the manner of Examples I to X, XII and XIII, after apparent recovery from anesthesia): The same "delayed death" phenomenon has been observed |
| FC1C(Cl)CC1(F)F (centres unmarked) [IV, 1-chloro-2,3,3-trifluorocyclobutane] | ≥ 4 | 0.75-1 % volume | ≥ 4 % volume | not cause convulsions and death | found to possess inhalation anesthetic properties | – |
| FC1(F)CC(Cl)C1(F)Cl (centres unmarked) [I, b.p. 107°C] | 6 | 0.2 % volume | 1.2 % volume | – | – | – |
| FC1(F)CC(F)(Cl)C1(F)Cl (centres unmarked) [III, 1,4-dichloro-1,2,2,4-tetrafluorocyclobutane] | ≥ 1 | 0.43-2 % volume | 2-3 % volume | not cause convulsions and death | found to possess inhalation anesthetic properties | – |
| FC1C(F)C(F)(F)C1(F)F (centres unmarked) [XI, b.p. 26°] | – | – | – | – | – | AC50 (anesthetic concentration) [3]: 10.5 % volume |
| FC1CCC1(F)F (centres unmarked) [VII, 1,2,2-trifluorocyclobutane] | ≥ 2 | < 4 % volume | 8 % volume | not cause convulsions and death | found to possess inhalation anesthetic properties | – |
| FC1CC(F)(F)C1(F)Cl (centres unmarked) [II, 1-chloro-1,2,2,4-tetrafluorocyclobutane] | ≥ 6 | 0.5 % volume | 3-3.5 % volume | not cause convulsions and death | found to possess inhalation anesthetic properties | – |
| FC1(F)CC(F)(Cl)C1(F)F (centres unmarked) [V, 1-chloro-1,2,2,3,3-pentafluorocyclobutane] | 5 | 2 % volume | 10 % volume | not cause convulsions and death | found to possess inhalation anesthetic properties | – |
